The text below walks through data of patent publication US7867512B2, “Cross-linked polymersomes and related encapsulating membranes” (The Trustees of the University of Pennsylvania, priority 1999, dated 2011).

Data set [1] can be described thus: Micropipette aspiration of vesicle membranes (bending and area expansion moduli, rupture). The class given is physicochemical. The conditions noted are these: vesicles formed by electroformation. The procedure: The tool that has been used to measure many of the material properties of bilayer vesicles is “micropipette aspiration” as applied in FIG. 2. In micropipette aspiration, the rheology and material properties of micron-sized objects are measured using glass pipettes. Small, micron diameter pipettes are used to pick up, deform and manipulate micron-sized objects, such as giant lipid vesicles. The aspiration pressure is controlled by manometers, in which the hydrostatic pressure in a reservoir connected to the micropipette is varied in relation to a fixed reference. Pressure may be varied with a resolution of microns of H2O (or 10^−6 atm).
A deformable object is aspirated using a pressure driving force (or suction pressure), ΔP, and the object is drawn within the pipette to a projection length LP. […] The bending modulus is measured by exerting small tensions on the membrane, to smooth out thermally-driven surface undulations. […]
Analogous to a lipid bilayer, at low but increasing aspiration pressures, the thermally undulating polymersome membrane was progressively smoothed, increasing the projected area logarithmically with tension, τ, (FIG. 3A). From the slope of this increase (in tension units of mN/m) versus the fractional change, α, in vesicle area the bending modulus, Kb, was calculated (see, e.g., Evans et al., Phys. Rev. Lett. 64:2094 (1990); Helfrich et al., Nuovo Cimento D3:137 (1984)). […]

Data set [2] in a line: Lipid probe incorporation and diffusivity by laser-photobleaching. The class given is physicochemical. An excerpt: In the same way, mixtures can be made of the copolymer amphiphiles with other synthetic or non-synthetic amphiphiles, such as, lipids or proteins. […] FIGS. 6A and 6B show the uniformity of fluorescence around an aspirated contour of membrane with 3 mol % mixed in with polymer before vesicle formation.

Molecules are shown by their SMILES.

`CCCCCCCC/C=C\CCCCCCCC(=O)O[C@H](COC(=O)CCCCCCCCCCCCCCCCC)COP(=O)([O-])OCC[N+](C)(C)C` [SOPC, 1-stearoyl-2-oleoyl phosphatidylcholine]: the “Ka, elastic modulus for area expansion” value in data set [1] is recorded as ~180 mN/m. Also, the lipid probe diffusivity result in data set [2] is listed as “approximately 3×10^−8 cm^2/s”.
